Test results: US20110311613A1, “TOPICAL FORMULATIONS OF FLAP INHIBITORS FOR THE TREATMENT OF DERMATOLOGICAL CONDITIONS” (AMIRA PHARMACEUTICAL, INC., priority 2008, published 2011)
Where two headings read alike, the source gives them in different places.

Columns and labels:
[1] = Solubility in topical formulation (75% propylene glycol, 15% transcutol, 10% water); type: physicochemical; conditions: aqueous with cosolvent or surfactant or cyclodextrin, solution of 75% propylene glycol, read-out: soluble in topical formulation
Experimental: In one aspect, a topical formulation of a FLAP inhibitor compound is prepared by mixing a FLAP inhibitor compound with propylene glycol, transcutol and water. In one aspect, the topical formulation includes a FLAP inhibitor compound (10 mg/mL) in a solution of 75% propylene glycol, 15% transcutol, 10% water.
Using this formulation, the following FLAP inhibitor compounds are all soluble at 10 mg/mL: Compound A (Na salt), Compound B (Na salt), Compound C (acid and Na salt), Compound F (Na salt), Compound G (Na salt), Compound I (acid), and Compound J (Na salt).

Male Sprague Dawley Rats = assay: Rat abraded skin model, acute irritancy (Draize scoring) following dermal administration; type: in vivo; conditions: 2 mL of 10 mg/mL solution on abraded skin, occluded 24 hours; erythema, edema scored at 24, 48 and 72 hours; each animal
Experimental: (§1) Male Sprague Dawley Rats (n=3 per group) were shaved on the back such that approximately 20% of the body area surface was exposed. The shaved skin was mildly abraded then 2 mL of a 10 mg/mL solution of the test compound in a formulation containing 75% propylene glycol, 15% transcutol, 10% water was applied to the abraded skin. The site of administration was occluded for 24 hours after which time the skin was cleansed of excess material (if any). Plasma samples were drawn from each rat at 2, 4, 24 and 72 hours.
Visual analysis of erythema, edema or other dermal findings were recorded prior to dosing then at 24, 48 and 72 hours. Scoring followed a Draize protocol.

[2] = Rat abraded skin model, skin penetration (plasma levels) following dermal administration; type: in vivo; conditions: for plasma levels (PK analysis): abraded skin, samples at 2, 4, 24 and 72 hours; for concentration at 24 h: male, Sprague Dawley, plasma, topical, 20 mg, 2 mL of 10 mg/mL solution on abraded skin, occluded 24 hours, read-out: plasma levels at the 24 hour time point
Experimental: as §1

[3] = test system: arachidonic acid-induced ear inflammation; assay: Mouse arachidonic acid-induced ear inflammation model, ear inflammation (ear punch weight); type: in vivo
Experimental: (§2) A mouse arachidonic acid (AA)—induced ear inflammation model was utilized to determine the extent of inhibition of ear swelling and leukotriene (LT) production by oral and topical application of a 5-lipoxygenase-activating protein (FLAP) inhibitor. Methods were adapted from Byrum et al., J Exp Med. 1997 Mar. 17; 185(6):1065-75).
(§3) Female CD-1 mice (weighing 18-20 grams) were administered compound orally (30 mg/kg in 10 ml/kg of 0.5% methylcellulose vehicle) or topically at concentrations of 0.01-10% by weight to the experimental ear and vehicle was applied to the opposite control ear. Four hours following compound administration a […] aliquot of a 4 mg/ml solution of AA in ethanol was applied to the experimental (right) ear and vehicle (ethanol) was applied to the control (left) ear. Thirty minutes later mice were placed into an enclosed Plexiglas chamber and exposed to CO2 for a period of 1-2 minutes or until breathing ceased. Ear biopsies were then taken for assessment of inflammation and leukotriene levels.
An eight mm ear punch was taken from a similar location of each experimental ear and each control ear and weighed. The extent of inflammation was determined by the difference in weight between the experimental ear and control ear [experimental ear (mg)-control ear (mg)]. A typical response for this assay is in the range of 4 and 12 mg increase in weight. Ear punches were then frozen for later assessment of leukotrienes.

Leukotriene B4 (LTB4) = assay: Mouse arachidonic acid-induced ear inflammation model, leukotriene analysis (EIA) of LTB4; type: in vivo
Experimental: as §2, §3
(§4) The ear punch was placed into a tris buffer containing 0.01% triton x and homogenized using a polytron probe homogenizer. The sample was then centrifuged at 10,000×g for 10 minutes at 4° C. Leukotriene B4 (LTB4) and cysteinyl leukotriene (CysLT) concentrations in the supernatant were determined by enzyme-immunoassay (EIA).

[4] = test system: cysteinyl leukotriene (CysLT); assay: Mouse arachidonic acid-induced ear inflammation model, leukotriene analysis (EIA) of CysLT; type: in vivo
Experimental: as §2, §3, §4

[5] = mouse, in vivo, 10 mg/kg
Experimental: (§5) BALB/c mice were divided into groups and acclimatized in cages for 24 hours (day 0). The control group was exposed to air and the test group was exposed to smoke from seven unfiltered cigarettes per day for 8 days (day 1 to day 8). […] On day 14, bronchioalveolar lavage fluid (BALF) is tested for influx of cells, cytokines, chemokines (e.g., KC, IL-17, MIP-2, IL-6), mucin, and/or proteins. Lung histology is also examined.

[6] = Trough plasma concentration in subchronic smoking mouse model; conditions: BALB/c mice, combination DP2 receptor antagonist + FLAP inhibitor
Experimental: as §5

| Structure (SMILES) | solubility [1] [µg/mL] | plasma levels (PK analysis) [2] | concentration at 24 h [2] [ng/mL] | Draize score (Male Sprague Dawley Rats) | further results |
| --- | --- | --- | --- | --- | --- |
| COc1cnc(-c2ccc(Cn3c(CC(C)(C)C(=O)O)c(SC(C)(C)C)c4cc(OCc5ccc(C)cn5)ccc43)cc2)nc1 [Compound A, 3-[3-tert-Butylsulfanyl-1-[4-(5-methoxy-pyrimidin-2-yl)-benzyl]-5-(5-methyl-pyridin-2-ylmethoxy)-1H-indol-2-yl]-2,2-dimethyl-propionic acid] | ≥ 10000 | measurable plasma levels | < 110 | 0 | reduction of inflammation by measure of change in ear weight ([3]; applied dermally 4 hours prior to AA treatment (FIG. 3A)): about 60%; reduction of inflammation by measure of change in ear weight ([3]; oral, 30 mg/kg, 4 hours prior to AA treatment (FIG. 2A)): about 65%; topical concentration of maximal activity ([3]; topical concentrations of 0.01-10%, all three endpoints (ear weight, LTB4, CysLT)): 0.1%; reduction of LTB4 levels (Leukotriene B4 (LTB4); applied dermally 4 hours prior to AA treatment (FIG. 3B)): about 55%; reduction of LTB4 levels (Leukotriene B4 (LTB4); oral, 30 mg/kg, 4 hours prior to AA treatment (FIG. 2B)): about 33%; reduction of CysLT levels ([4]; applied dermally 4 hours prior to AA treatment (FIG. 3C)): about 37%; reduction of CysLT levels ([4]; oral, 30 mg/kg, 4 hours prior to AA treatment (FIG. 2C)): about 57% |
| COc1cnc(-c2ccc(Cn3c(CC(C)(C)C(=O)O)c(SC(C)(C)C)c4cc(OCc5cnc(C)cn5)ccc43)cc2)nc1 [Compound B, 3-[3-tert-Butylsulfanyl-1-[4-(5-methoxy-pyrimidin-2-yl)-benzyl]-5-(5-methyl-pyrazin-2-ylmethoxy)-1H-indol-2-yl]-2,2-dimethyl-propionic acid] | ≥ 10000 | measurable plasma levels | < 110 | 0 |  |
| CC(C)(C)Sc1c(CC(C)(C)C(=O)O)n(Cc2ccc(-c3ccc(F)cn3)cc2)c2ccc(OCc3ccc4ccccc4n3)cc12 [Compound F, 3-[3-tert-Butylsulfanyl-1-[4-(5-fluoro-pyridin-2-yl)-benzyl]-5-(quinolin-2-ylmethoxy)-1H-indol-2-yl]-2,2-dimethyl-propionic acid] | ≥ 10000 | measurable plasma levels | < 110 | 0 |  |
| CCC(CC)(Cc1c(SC(C)(C)C)c2cc(OCc3ccc(C)cn3)ccc2n1Cc1ccc(-c2ncc(OC)cn2)cc1)C(=O)O [Compound G, 2-[3-tert-Butylsulfanyl-1-[4-(5-methoxy-pyrimidin-2-yl)-benzyl]-5-(5-methyl-pyridin-2-ylmethoxy)-1H-indol-2-ylmethyl]-2-ethyl-butyric acid] | ≥ 10000 | measurable plasma levels | < 110 | 0 |  |
| CC(=O)N1CCC[C@H]1COc1ccc2c(c1)c(SC(C)(C)C)c(CC(C)(C)C(=O)O)n2Cc1ccc(Cl)cc1 [Compound I, 3-[5-((S)-1-Acetyl-pyrrolidin-2-ylmethoxy)-3-tert-butylsulfanyl-1-(4-chloro-benzyl)-1H-indol-2-yl]-2,2-dimethyl-propionic acid] | ≥ 10000 | measurable plasma levels | < 110 | 0 |  |
| CCN(Cc1cc(C(F)(F)F)ccc1-c1cncc(CC(=O)O)c1)C(=O)OCc1ccccc1 [DP2 receptor antagonist] |  |  |  |  | Plasma concentration @ trough [5]: <10 nM |
| COc1ccc(-c2ccc(Cn3c(CC(C)(C)C(=O)O)c(SC(C)(C)C)c4cc(OCc5ccc(C)cn5)ccc43)cc2)cn1 [FLAP inhibitor, 3-(3-(tert-butylthio)-1-(4-(6-methoxypyridin-3-yl)benzyl)-5-((5-methylpyridin-2-yl)methoxy)-1H-indol-2-yl)-2,2-dimethylpropanoic acid] |  |  |  |  | Plasma concentration @ trough [6]: 136 (FLAP inhibitor) nM |

Second part, led by results:

| solubility [1] [µg/mL] | plasma levels (PK analysis) [2] | concentration at 24 h [2] [ng/mL] | Structure (SMILES) | Draize score (Male Sprague Dawley Rats) | further results |
| --- | --- | --- | --- | --- | --- |
| ≥ 10000 | measurable plasma levels | < 110 | COc1cnc(-c2ccc(Cn3c(CC(C)(C)C(=O)O)c(SC(C)(C)C)c4cc(OC[C@@H]5Cc6ccccc6N5C(C)=O)ccc43)cc2)nc1 [Compound C, 3-{5-((S)-1-Acetyl-2,3-dihydro-1H-indol-2-ylmethoxy)-3-tert-butylsulfanyl-1-[4-(5-methoxy-pyrimidin-2-yl)-benzyl]-1H-indol-2-yl}-2,2-dimethyl-propionic acid] | 0 |  |
| ≥ 10000 | measurable plasma levels | < 110 | CC(C)(C)Sc1c(CC(C)(C)C(=O)O)n(Cc2ccc(-c3ccc(F)cn3)cc2)c2ccc(OCc3ccccn3)cc12 [Compound J, 3-[3-tert-butylsulfanyl-1-[4-(5-fluoro-pyridin-2-yl)-benzyl]-5-(pyridin-2-ylmethoxy)-1H-indol-2-yl]-2,2-dimethyl-propionic acid] | 0 |  |
